≈ marks a conversion by molar mass, not a printed value. Where “and” joins values, the source holds several entries; their conditions need not be identical. Equal values may be shown once. Residues, ends and D or L forms follow the SMILES beside them.
Assays:
S. cohnii c.i. = test: MIC/MBC broth microdilution, S. cohnii; assay type: cell-based, Staphylococcus cohnii
Outline: (§1)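 Standard NCCLS broth microdilution in BHI broth, inoculum approx. 10^5 CFU/mL, serially diluted peptidomimetics, 18 h at 37 °C. MIC was the lowest concentration with no obvious growth (≥90% inhibition versus untreated); MBC was the lowest giving ≤3 colonies on subculture (≥99.9% kill).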

E. faecalis c.i. = test: MIC/MBC broth microdilution, E. faecalis; assay type: cell-based, Enterococcus faecalis
Outline: as §1

S. schleiferi c.i. = test: MIC/MBC broth microdilution, S. schleiferi; assay type: cell-based, Staphylococcus schleiferi
Outline: as §1

S. mutans c.i. = test: MIC/MBC broth microdilution, S. mutans; assay type: cell-based, Streptococcus mutans
Outline: as §1

E. coli ATCC 25922 = test: MIC/MBC broth microdilution, E. coli; assay type: cell-based, Escherichia coli
Outline: as §1

P. vulgaris ATCC 6896 = test: MIC/MBC broth microdilution, P. vulgaris; assay type: cell-based, Proteus vulgaris
Outline: as §1

[1] = tested on: K. pneumoniae ATCC 700603; test: MIC/MBC broth microdilution, K. pneumoniae; assay type: cell-based
Outline: as §1

[2] = Hydrophobicity by reverse-phase chromatography; assay type: physicochemical; settings: acetonitrile content in the mobile phase at the retention time
Outline: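 Reverse-phase chromatography of peptidomimetics; hydrophobicity expressed as percent acetonitrile in the mobile phase at each compound's retention time.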

[3] = Stability / presence in human plasma; assay type: in vitro ADME; settings: 24 h incubation at 37 °C
Method: Blood was drawn from healthy volunteers, and lithium/heparin holding tubes were used to remove the clot by centrifugation. The plasma was aliquoted in sterile conditions and incubated with the desired compounds for 24 h at 37 °C. The samples were prepared under sterile conditions following the previously described protocol. The samples were collected at six time points (0, 1, 2, 3, 6, and 24 h) for determining stability in water solutions, and time points of 0, 10, 20, 30, 40, 50, and 60 min, as well as of 2, 3, 6, and 24 h, for determining stability in human plasma. The analysis was performed by HPLC using a Kromasil C8 column (5 μm, 90 Å, 1.0 mm × 250 mm) monitored by a PDA or ELDS-LT II detector. For quantification, peak areas were compared to a calibration curve calculated by Shimadzu LCsolution Software (Kyoto, Japan). Graphs were prepared in GraphPad Prism (Boston, USA).

[4] = tested on: human dermal fibroblast cell line (46BR.1N); test: XTT cell proliferation assay, fibroblasts; assay type: cell-based; settings: for effect on proliferation, in words: 48 and 72 h, 0.01–150 μg/mL
Outline: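 Cells at 37 °C, 5% CO2 received peptidomimetics in serum-free HG-DMEM for 48 or 72 h; for 72 h, half the medium was renewed and peptide re-added at 48 h. XTT reagent was then incubated 4 h and absorbance read at 490 nm; Mann–Whitney U test, p ≤ 0.05.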

Row | Structure (SMILES) | MIC (S. cohnii c.i.; H2O) [µg/mL] | MIC (S. cohnii c.i.; water additive DMSO) [µg/mL] | MIC (S. cohnii c.i.; water additive EtOH) [µg/mL] | MIC (E. faecalis c.i.; H2O) [µg/mL] | MIC (E. faecalis c.i.; water additive DMSO) [µg/mL] | MIC (E. faecalis c.i.; water additive EtOH) [µg/mL] | MIC (S. schleiferi c.i.; H2O) [µg/mL] | MIC (S. schleiferi c.i.; water additive DMSO) [µg/mL] | MIC (S. schleiferi c.i.; water additive EtOH) [µg/mL] | MIC (S. mutans c.i.; H2O) [µg/mL] | MIC (S. mutans c.i.; water additive DMSO) [µg/mL] | MIC (S. mutans c.i.; water additive EtOH) [µg/mL] | MIC (E. coli ATCC 25922; H2O) [µg/mL] | MIC (E. coli ATCC 25922; water additive DMSO) [µg/mL] | MIC (E. coli ATCC 25922; water additive EtOH) [µg/mL] | MIC (P. vulgaris ATCC 6896; H2O) [µg/mL] | MIC (P. vulgaris ATCC 6896; water additive DMSO) [µg/mL] | MIC (P. vulgaris ATCC 6896; water additive EtOH) [µg/mL] | MIC ([1]; H2O) [µg/mL] | MIC ([1]; water additive DMSO) [µg/mL] | also measured
1 | CC(C)[C@H](NC(=O)[C@H](Cc1c[nH]cn1)NC(=O)[C@H](CCCNC(=N)N)NC(=O)OCc1ccccc1)C(=O)NCCc1ccccc1 [Compound A-219] (HELM PEPTIDE1{[O=C(OCc1ccccc1)[*:2]].R.H.V.[c1ccc(CCN[*:1])cc1]}$$$$V2.0) | > 512 | > 512 | > 512 | > 512 | > 512 | > 512 | > 512 | > 512 | > 512 | > 512 | > 512 | > 512 | > 512 | > 512 | > 512 | > 512 | > 512 | > 512 | > 512 | > 512 | MIC ([1]; water additive EtOH): > 512 µg/mL; % AcCN (acetonitrile required for elution from the column) [2]: 42.6%; present in human plasma [3]: 85–90%; pro-proliferative effect above control ([4]; A-196 0.01–10 μg/mL, A-219 above 0.1 μg/mL, A-213 lower concentrations): around 20%; effect on proliferation, in words ([4]; XTT): best pro-proliferative effect
2 | CC(C)[C@@H](CNC(=O)C(=Cc1ccccc1)c1ccccc1)NC(=O)[C@H](CCCNC(=N)N)NC(=O)[C@H](CCCCNC(=N)N)NC(=O)OCc1ccccc1 [Compound A-192] | 16 (≈ 20.8 µM) | 32 (≈ 41.6 µM) | 16 (≈ 20.8 µM) | > 512 | > 512 | 256 (≈ 333 µM) | 256 (≈ 333 µM) | 256 (≈ 333 µM) | 256 (≈ 333 µM) | > 512 | > 512 | > 512 | > 512 | 256 (≈ 333 µM) | > 512 | > 512 | > 512 | > 512 | > 512 | > 512 | MBC (S. cohnii c.i.; H2O): 32 µg/mL (≈ 41.6 µM); MBC (S. cohnii c.i.; water additive DMSO): 32 µg/mL (≈ 41.6 µM); MBC (S. cohnii c.i.; water additive EtOH): 32 µg/mL (≈ 41.6 µM); MBC (E. faecalis c.i.; water additive EtOH): 512 µg/mL (≈ 666 µM); MBC (S. schleiferi c.i.; H2O): 256 µg/mL (≈ 333 µM); MBC (S. schleiferi c.i.; water additive DMSO): 256 µg/mL (≈ 333 µM); MBC (S. schleiferi c.i.; water additive EtOH): 256 µg/mL (≈ 333 µM); MBC (E. coli ATCC 25922; water additive DMSO): 512 µg/mL (≈ 666 µM); MIC ([1]; water additive EtOH): > 512 µg/mL; % AcCN (acetonitrile required for elution from the column) [2]: 44.8–49.8% and 48.7%; proliferation relative to control at 100 and 150 μg/mL ([4]; XTT): 25%; proliferation relative to control at 50 μg/mL ([4]; XTT, 50 μg/mL): 50%; effect on proliferation, in words ([4]; XTT): negative impact

Source: article PMC12332667, “Role of Structural Modifications in Peptidomimetic Compounds as Potential Antimicrobial Agents against Staphylococcus aureus and Streptococcus pyogenes: Balancing Bioavailability, Safety, and Antimicrobial Activity” (ACS Omega, 2025)
